Experimental data: PMC2151593 (The Journal of General Physiology, 2006)
One block for each molecule: values may come before it.

How the values were obtained:
KcsA [1] = settings: read-out: K i for TEA block; KcsA (Tyr82); ref Heginbotham et al., 1999; cited from earlier work
[2] = target: T1, Shaker Thr449 (wild type) (Drosophila melanogaster, UniProt P08510, C301S/C308S/DEL6-46); test: Extracellular TEA block of voltage-clamped potassium currents, Shaker with Thr; assay type: cell-based; settings: Thr at 449 relative to Phe; ΔΔG = RT ln(K i,X/K i,Phe)
Shaker Tyr449 = settings: ref Heginbotham and MacKinnon, 1992; cited from earlier work
KcsA [3] = test: TEA block of KcsA; assay type: biochemical, Streptomyces lividans; settings: higher than for Shaker T449F
Shaker T449X, X = Cha = assay type: cell-based
[4] = system: Shaker T449X, X = 3,4,5F-Phe; assay type: cell-based; settings: 3,4,5F-Phe at 449 relative to Phe; ΔΔG = RT ln(K i,X/K i,Phe)
[5] = system: Shaker T449X, X = 3,5F-Phe; assay type: cell-based; settings: 3,5F-Phe at 449 relative to Phe; ΔΔG = RT ln(K i,X/K i,Phe)
[6] = system: Shaker, fluorinated derivatives of Phe449; test: Voltage dependence of TEA block, all fluorinated derivatives of Phe449; assay type: cell-based
Shaker T449F = Shaker T449F (Drosophila melanogaster, UniProt P08510, C301S/C308S/DEL6-46/T449F); assay type: cell-based
Shaker T449X, X = 4F-Phe = assay type: cell-based; settings: 4F-Phe at 449 relative to Phe; ΔΔG = RT ln(K i,X/K i,Phe)
[7] = target: T1, Shaker Thr449 (wild type); settings: ref Heginbotham and MacKinnon, 1992; cited from earlier work
[8] = benzene compared with hexafluorobenzene; ref Leo et al., 1971; cited from earlier work

ΔΔG [2]: 2.58 kcal/mol
ΔΔG (Shaker T449F; Phe at 449 (reference), ΔΔG = RT ln(K i,X/K i,Phe), RT 0.58 kcal/mol): 0 kcal/mol
Structure (SMILES): CC[N+](CC)(CC)CC [TEA, tetraethylammonium]
Ki (KcsA [1]): 3.2 mM
fraction of the transmembrane electric field sensed by TEA (Shaker Tyr449): 4%
K i for TEA block of KcsA relative to Shaker T449F (KcsA [3]): ~10 fold
ΔΔG (Shaker T449X, X = Cha; Cha at 449 relative to Phe, ΔΔG = RT ln(K i,X/K i,Phe)): 3.75 kcal/mol
effect on TEA affinity (decrease relative to Phe) (Shaker T449X, X = Cha; nonaromatic residue Cha at 449): 640 fold
ΔΔG [4]: 3.54 kcal/mol
ΔΔG [5]: 2.78 kcal/mol
voltage dependence of block [6]: 2–8%
ΔΔG (Shaker T449X, X = 4F-Phe): 1.23 kcal/mol
fraction of the transmembrane electric field sensed by TEA [7]: 19%

Structure (SMILES): CC[As+](CC)(CC)CC [TEAs, tetraethylarsonium]
factor by which TEAs is a weaker blocker (larger inhibitory constant) than TEA (Shaker T449F; Shaker T449F, unpublished data): ~25 fold

Structure (SMILES): Fc1c(F)c(F)c(F)c(F)c1F [hexafluorobenzene]
logP (water/octanol partition) [8]: nearly identical
